Measured values: patent US10047057B2, “Functionalized tyrosine kinase inhibitors modified with precious metal electrophiles and methods associated therewith” (WAKE FOREST UNIVERSITY, priority 2014, dated 2018)

Legend:
NCI-H460 cells = test: Cell proliferation assay (Celltiter 96), NCI-H460; settings: Homo sapiens, NCI-H460, read-out: IC50 NCI-H460
Description: (§1) The cell line NCI-H460 is a model of a large-cell carcinoma and is characterized by wild-type EGFR-TK. By contrast, NCI-H1975 adenocarcinoma cells harbor a point mutation (L858R) in exon 21 as well as a secondary mutation (T790M) at the bottom of the hydrophobic ATP binding pocket.
(§2) The human non-small cell lung cancer cell lines, NCI-H460 (large cell) and NCI-H1975 (adenocarcinoma), were obtained from the American Type Culture Collection (Rockville, Md., USA). […] Cells were incubated at a constant temperature at 37° C. in a humidified atmosphere containing 5% CO2 and were subcultured every 2 to 3 days in order to maintain cells in logarithmic growth. The cytotoxicity studies were carried out according to a standard protocol using the Celltiter 96 aqueous nonradioactive cell proliferation assay kit (Promega, Madison, Wis.). Stock solutions (10 mM) of all drugs were made in DMF and serially diluted with media prior to incubation with cancer cells. IC50 values were calculated from dose-response curves using sigmoidal curve fits in GraphPad Prism (GraphPad Software, La Jolla, Calif.).

NCI-H1975 cells = test: Cell proliferation assay (Celltiter 96), NCI-H1975; settings: read-out: IC50 NCI-H1975; Table 1; IC50 ± S.D., two experiments in triplicate; L858R/T790M EGFR
Description: as §1, §2

IC50 (NCI-H460 cells): 36 ± 4.4 µM
IC50 (NCI-H1975 cells): 51.7 ± 1.1 µM
Structure (SMILES): CCOc1cc2ncnc(Nc3ccc(F)c(Cl)c3)c2cc1N(C)C(=S)NC [Compound 7, 1-(4-((3-Chloro-4-fluorophenyl)amino)-7-ethoxyquinazolin-6-yl)-1,3-dimethylthiourea]
